The source of these data is US20230416203A1, “POTENT AND SELECTIVE INHIBITORS OF THE CALCIUM-ACTIVATED POTASSIUM CHANNEL, KCA3.1, FOR USE AS PLATFORM THERAPEUTICS” (priority 2020, published 2023).

As usually defined, the IC50 is the concentration at which inhibition is half-maximal. A higher IC50 goes with weaker potency in that assay. One may read the half-life as the time needed for the level to fall by half in the phase considered. A lower half-life goes with fast loss.

In one data set the target is T1, KV1.2 (Rattus norvegicus, UniProt P63142).
T1 construct: expressed in transfected cells; host or cells: B82
Description: Potassium channels patch-clamp (QPatch), KV1.2. The format is cell-based. As for the experimental part: (§1) The effects of Group 4 compounds on related potassium channels were evaluated by patch-clamp using a QPatch HTX automated electrophysiology platform (Sophion, Denmark). The giga-seal and whole-cell requirements for the automated electrophysiology were the following: minimum seal resistance=0.1 GO, holding potential=−80 mV, holding pressure=−20 mbar; and positioning pressure=−70 mbar.
(In patch-clamp work, channel activity is measured electrically.)

The next data set has as its target T2, KV1.5 (Homo sapiens, UniProt P22460).
T2 construct: expressed in transfected cells; host or cells: MEL
Put plainly: Potassium channels patch-clamp (QPatch), KV1.5. It is filed as cell-based. As for the experimental part:
as §1

Data set [1] has as its target CaV1.2 channel over KCa3.1 (Homo sapiens, UniProt Q13936). Put plainly: in vitro. Conditions: pH 7.4.
The target of the next data set is T3, KV1.1 (Mus musculus, UniProt P16388).
T3 construct: expressed in transfected cells; host or cells: L929
Put plainly: Potassium channels patch-clamp (QPatch), KV1.1. It is filed as cell-based. As for the experimental part:
as §1

Another data set deals with T4, CYP-IA2 (Homo sapiens, UniProt P05177).
T4 construct: from tissue
T4 sequence (P05177 1-516): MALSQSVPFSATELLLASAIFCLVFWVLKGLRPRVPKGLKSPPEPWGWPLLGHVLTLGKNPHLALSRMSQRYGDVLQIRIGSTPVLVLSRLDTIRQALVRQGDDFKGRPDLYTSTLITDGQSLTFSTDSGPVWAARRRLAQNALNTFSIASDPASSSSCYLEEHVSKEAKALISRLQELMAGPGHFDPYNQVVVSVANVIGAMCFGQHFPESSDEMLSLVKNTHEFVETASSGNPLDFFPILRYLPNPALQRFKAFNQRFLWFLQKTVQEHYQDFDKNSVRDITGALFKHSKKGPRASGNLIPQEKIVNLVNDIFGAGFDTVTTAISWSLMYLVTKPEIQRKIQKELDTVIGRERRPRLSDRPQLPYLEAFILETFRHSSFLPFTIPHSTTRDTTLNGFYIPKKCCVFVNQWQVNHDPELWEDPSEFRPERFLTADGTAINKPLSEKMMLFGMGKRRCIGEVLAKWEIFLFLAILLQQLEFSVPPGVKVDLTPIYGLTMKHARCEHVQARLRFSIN
Description: Cytochrome P450 enzymes inhibition assay, CYP-IA2. As to conditions: for CYP IC50/KCa3.1 IC50: CYP-IA2. The format is in vitro ADME. The text has this:
(§2) The metabolite formation for each substrate under the above conditions was estimated using the following formula: Percent inhibition=[1−(test area ratio/control area ratio)]×100.

In a further data set the target is T5, KV1.4 (Homo sapiens, UniProt P22459).
T5 construct: expressed in transfected cells; host or cells: LTK
Put plainly: Potassium channels patch-clamp (QPatch), KV1.4. The format is cell-based. As for the experimental part: as §1

Another data set has as its target T6, CYP-2D6 (Homo sapiens, UniProt P10635).
T6 construct: from tissue
Put plainly: Cytochrome P450 enzymes inhibition assay, CYP-2D6. As to conditions: for CYP IC50/KCa3.1 IC50: CYP-2D6. It is filed as in vitro ADME.
Excerpt: as §2

For another data set, the target named is CYP-2C9 (Homo sapiens, UniProt P11712). Put plainly: Cytochrome P450 enzymes inhibition assay, CYP-2C9. The format is in vitro ADME. Conditions: for CYP IC50/KCa3.1 IC50: CYP-2C9.
Excerpt: as §2

A further data set concerns the target T7, KV1.7 (Homo sapiens, UniProt Q96RP8).
T7 construct: expressed in transfected cells; host or cells: CHL
Put plainly: Potassium channels patch-clamp (QPatch), KV1.7. The format is cell-based. As for the experimental part:
as §1

A further data set addresses T8, KV11.1 (hERG) (Homo sapiens, UniProt Q12809).
T8 construct: host or cells: CHO
Put plainly: Potassium channels patch-clamp (QPatch), KV11.1 (hERG). It is filed as cell-based. As for the experimental part: as §1

A further data set can be described thus: in vitro. Conditions: human, microsomes, pH 7.4.
A further data set deals with KCa3.1 channel (Homo sapiens, UniProt O15554). Description: KCa3.1 patch-clamp (QPatch HTX automated and manual). The format is cell-based. As for the experimental part:
The effect of the compounds on KCa3.1 channel was evaluated by patch-clamp using a QPatch HTX automated electrophysiology platform (Sophion, Denmark) and by manual patch-clamp (HEKA, Germany). For QPatch experiments, the giga-seal and whole-cell requirements for the automated electrophysiology were the following: minimum seal resistance=0.1 GQ; holding potential=−80 mV; holding pressure=−20 mbar; and positioning pressure=−70 mbar. For KCa3.1 experiment, the external solution was Na^+-Ringer's and contained (in mM): 160 NaCl; 10 HEPES; 4.5 KCl; 1 MgCl2; and 2 CaCl2 (pH=7.4, 310 mOsm). […] Following establishment of the whole-cell configuration, cells were held at −80 mV and KCa3.1 currents elicited by a voltage protocol that held at −80 mV for 20 ms, stepped to −120 mV for 20 ms, ramped from −120 to +40 mV over 200 ms, and then stepped back to −120 mV for 20 ms. This pulse protocol was applied every 10 s. Current slopes (in amperes per second) were measured using the Sophion QPatch software and exported to Microsoft Excel and GraphPad Prism 7 for analysis. […] Curve-fitting and IC50 determination were performed using GraphPad Prism software.

In the next data set the target is T9, KCa2.2 (Rattus norvegicus, UniProt P70604).
T9 construct: expressed in transfected cells; host or cells: HEK
Description: Potassium channels patch-clamp (QPatch), KCa2.2. The format is cell-based. As for the experimental part:
as §1

For the next data set, the target named is T10, CYP-3A4 (Homo sapiens, UniProt P08684).
T10 construct: from tissue
Put plainly: Cytochrome P450 enzymes inhibition assay, CYP-3A4. It is filed as in vitro ADME. Conditions: for CYP IC50/KCa3.1 IC50: CYP-3A4.
Excerpt: as §2

The target of a further data set is T11, KV1.3 (Mus musculus, UniProt P16390).
T11 construct: expressed in transfected cells; host or cells: L929
Put plainly: Potassium channels patch-clamp (QPatch), KV1.3. It is filed as cell-based. As for the experimental part: as §1

For another data set, the target named is CYP-2C19 (Homo sapiens, UniProt P33261). Description: Cytochrome P450 enzymes inhibition assay, CYP-2C19. It is filed as in vitro ADME. Conditions: for CYP IC50/KCa3.1 IC50: CYP-2C19.
Excerpt: as §2

For another data set, the target named is T12, KCa1.1 (Homo sapiens, UniProt Q12791).
T12 construct: expressed in transfected cells; host or cells: HEK
Description: Potassium channels patch-clamp (QPatch), KCa1.1. It is filed as cell-based. As for the experimental part:
as §1

The nature of data set [2]: Microsomal stability studies. As to conditions: for Microsomal Stability (human) % remaining @ 30 mins: human microsomes, 1 μM; for drug/control (% remaining @ 30 mins): ratio to Verapamil control.

Chain of CYP-2C9 (P11712 whole entry): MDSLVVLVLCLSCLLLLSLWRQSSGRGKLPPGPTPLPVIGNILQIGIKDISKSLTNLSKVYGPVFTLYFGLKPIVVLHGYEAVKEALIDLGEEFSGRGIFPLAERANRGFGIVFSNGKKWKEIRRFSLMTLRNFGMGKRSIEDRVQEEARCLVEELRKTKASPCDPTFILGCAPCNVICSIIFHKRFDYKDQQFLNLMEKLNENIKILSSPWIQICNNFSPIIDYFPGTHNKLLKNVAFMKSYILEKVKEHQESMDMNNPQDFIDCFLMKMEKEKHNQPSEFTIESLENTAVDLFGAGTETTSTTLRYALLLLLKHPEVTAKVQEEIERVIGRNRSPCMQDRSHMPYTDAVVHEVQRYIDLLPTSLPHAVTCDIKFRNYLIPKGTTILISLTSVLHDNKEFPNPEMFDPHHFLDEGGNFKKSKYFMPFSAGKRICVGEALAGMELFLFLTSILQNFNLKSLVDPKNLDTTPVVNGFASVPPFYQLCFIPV
T6 sequence (P10635 whole entry): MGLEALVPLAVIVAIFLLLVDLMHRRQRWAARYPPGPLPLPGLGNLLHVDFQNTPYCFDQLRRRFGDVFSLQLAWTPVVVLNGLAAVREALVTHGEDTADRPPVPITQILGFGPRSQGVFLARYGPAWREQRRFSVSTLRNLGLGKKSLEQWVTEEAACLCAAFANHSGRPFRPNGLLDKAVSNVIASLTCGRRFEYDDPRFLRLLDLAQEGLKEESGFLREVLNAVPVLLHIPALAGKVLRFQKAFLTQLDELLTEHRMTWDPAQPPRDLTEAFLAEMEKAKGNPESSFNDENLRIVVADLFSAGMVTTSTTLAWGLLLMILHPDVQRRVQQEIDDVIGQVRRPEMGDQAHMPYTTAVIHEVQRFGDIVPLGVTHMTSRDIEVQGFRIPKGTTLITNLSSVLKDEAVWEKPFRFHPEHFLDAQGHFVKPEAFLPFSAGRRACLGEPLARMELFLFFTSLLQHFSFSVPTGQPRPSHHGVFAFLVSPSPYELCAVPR
T10 sequence (P08684 whole entry): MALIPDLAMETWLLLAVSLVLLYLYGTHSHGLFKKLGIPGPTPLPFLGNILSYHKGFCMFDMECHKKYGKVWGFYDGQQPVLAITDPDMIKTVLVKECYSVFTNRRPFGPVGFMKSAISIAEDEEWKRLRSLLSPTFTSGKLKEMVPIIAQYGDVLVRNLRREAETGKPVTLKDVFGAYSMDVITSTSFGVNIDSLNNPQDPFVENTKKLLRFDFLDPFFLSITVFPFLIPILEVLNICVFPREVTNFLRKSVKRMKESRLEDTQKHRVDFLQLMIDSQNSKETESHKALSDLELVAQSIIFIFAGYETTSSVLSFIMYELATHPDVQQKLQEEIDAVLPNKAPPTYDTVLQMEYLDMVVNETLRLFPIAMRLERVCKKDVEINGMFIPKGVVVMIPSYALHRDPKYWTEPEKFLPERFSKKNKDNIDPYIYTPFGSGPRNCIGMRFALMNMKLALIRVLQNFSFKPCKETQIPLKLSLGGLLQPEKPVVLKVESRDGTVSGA
Chain of CYP-2C19 (P33261 whole entry): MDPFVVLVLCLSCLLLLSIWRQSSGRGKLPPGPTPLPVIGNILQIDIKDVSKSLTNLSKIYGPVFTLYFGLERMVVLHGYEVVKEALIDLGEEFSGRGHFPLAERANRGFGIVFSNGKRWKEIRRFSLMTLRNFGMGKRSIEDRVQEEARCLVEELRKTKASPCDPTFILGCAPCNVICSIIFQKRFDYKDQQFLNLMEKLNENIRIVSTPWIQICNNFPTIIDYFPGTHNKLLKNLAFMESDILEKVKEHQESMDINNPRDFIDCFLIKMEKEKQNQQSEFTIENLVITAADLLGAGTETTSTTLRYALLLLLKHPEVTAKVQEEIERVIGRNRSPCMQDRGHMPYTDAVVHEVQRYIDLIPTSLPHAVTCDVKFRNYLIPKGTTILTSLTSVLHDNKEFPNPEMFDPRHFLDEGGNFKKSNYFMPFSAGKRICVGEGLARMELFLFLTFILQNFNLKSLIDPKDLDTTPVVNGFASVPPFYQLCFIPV
T5 sequence (P22459 whole entry): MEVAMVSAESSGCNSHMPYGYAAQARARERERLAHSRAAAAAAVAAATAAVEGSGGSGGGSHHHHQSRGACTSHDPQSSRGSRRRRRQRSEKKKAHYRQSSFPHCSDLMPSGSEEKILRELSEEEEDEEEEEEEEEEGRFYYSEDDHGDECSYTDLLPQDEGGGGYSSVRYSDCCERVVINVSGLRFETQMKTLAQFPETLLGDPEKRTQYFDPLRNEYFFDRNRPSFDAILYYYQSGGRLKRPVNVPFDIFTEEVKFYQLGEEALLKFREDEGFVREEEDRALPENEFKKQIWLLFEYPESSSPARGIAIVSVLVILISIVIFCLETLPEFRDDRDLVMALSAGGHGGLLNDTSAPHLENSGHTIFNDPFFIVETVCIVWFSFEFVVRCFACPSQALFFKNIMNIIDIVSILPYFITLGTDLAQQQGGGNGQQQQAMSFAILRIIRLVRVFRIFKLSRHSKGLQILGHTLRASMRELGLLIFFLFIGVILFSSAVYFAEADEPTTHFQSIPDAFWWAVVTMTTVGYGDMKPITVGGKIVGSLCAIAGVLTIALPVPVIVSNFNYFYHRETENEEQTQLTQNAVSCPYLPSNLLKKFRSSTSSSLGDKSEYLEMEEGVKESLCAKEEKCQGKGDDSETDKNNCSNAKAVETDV
T9 sequence (P70604 whole entry): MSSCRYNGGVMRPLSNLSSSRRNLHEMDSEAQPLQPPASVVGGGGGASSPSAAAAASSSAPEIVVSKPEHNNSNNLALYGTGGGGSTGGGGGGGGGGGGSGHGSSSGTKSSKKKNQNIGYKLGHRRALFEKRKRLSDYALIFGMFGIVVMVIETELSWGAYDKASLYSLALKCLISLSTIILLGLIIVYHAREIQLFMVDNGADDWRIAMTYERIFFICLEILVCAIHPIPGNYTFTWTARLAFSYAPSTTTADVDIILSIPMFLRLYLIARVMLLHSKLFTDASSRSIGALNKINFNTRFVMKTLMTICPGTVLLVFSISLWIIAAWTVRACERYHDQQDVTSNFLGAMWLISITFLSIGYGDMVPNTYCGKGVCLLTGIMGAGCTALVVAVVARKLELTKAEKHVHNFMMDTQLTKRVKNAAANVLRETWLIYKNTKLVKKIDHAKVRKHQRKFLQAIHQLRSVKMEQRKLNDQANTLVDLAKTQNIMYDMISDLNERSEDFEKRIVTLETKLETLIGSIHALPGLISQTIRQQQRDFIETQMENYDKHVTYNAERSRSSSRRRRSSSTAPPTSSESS
T7 sequence (Q96RP8 whole entry): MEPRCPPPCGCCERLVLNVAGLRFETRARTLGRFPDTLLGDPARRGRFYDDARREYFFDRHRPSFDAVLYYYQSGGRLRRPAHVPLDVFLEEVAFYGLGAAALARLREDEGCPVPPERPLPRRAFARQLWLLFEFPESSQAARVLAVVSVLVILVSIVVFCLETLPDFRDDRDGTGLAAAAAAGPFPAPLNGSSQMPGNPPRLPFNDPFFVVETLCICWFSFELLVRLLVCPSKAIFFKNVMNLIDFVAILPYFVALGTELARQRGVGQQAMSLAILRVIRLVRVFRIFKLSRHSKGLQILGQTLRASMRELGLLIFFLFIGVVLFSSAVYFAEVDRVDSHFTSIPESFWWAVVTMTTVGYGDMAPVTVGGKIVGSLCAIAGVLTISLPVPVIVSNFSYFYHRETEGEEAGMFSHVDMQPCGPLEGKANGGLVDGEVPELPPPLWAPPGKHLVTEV
T1 sequence (P63142 whole entry): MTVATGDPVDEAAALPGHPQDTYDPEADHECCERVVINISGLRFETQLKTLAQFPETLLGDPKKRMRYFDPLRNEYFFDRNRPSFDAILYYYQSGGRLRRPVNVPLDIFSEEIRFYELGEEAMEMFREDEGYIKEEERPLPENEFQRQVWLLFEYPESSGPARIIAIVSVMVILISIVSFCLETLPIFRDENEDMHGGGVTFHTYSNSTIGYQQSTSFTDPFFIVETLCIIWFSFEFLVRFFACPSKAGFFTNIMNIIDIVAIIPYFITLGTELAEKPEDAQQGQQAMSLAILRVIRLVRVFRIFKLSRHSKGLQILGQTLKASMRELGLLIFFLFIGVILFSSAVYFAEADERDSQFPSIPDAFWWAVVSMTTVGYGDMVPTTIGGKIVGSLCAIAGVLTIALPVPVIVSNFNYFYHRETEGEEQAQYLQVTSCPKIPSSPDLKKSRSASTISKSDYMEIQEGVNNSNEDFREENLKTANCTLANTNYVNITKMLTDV
T11 sequence (P16390 whole entry): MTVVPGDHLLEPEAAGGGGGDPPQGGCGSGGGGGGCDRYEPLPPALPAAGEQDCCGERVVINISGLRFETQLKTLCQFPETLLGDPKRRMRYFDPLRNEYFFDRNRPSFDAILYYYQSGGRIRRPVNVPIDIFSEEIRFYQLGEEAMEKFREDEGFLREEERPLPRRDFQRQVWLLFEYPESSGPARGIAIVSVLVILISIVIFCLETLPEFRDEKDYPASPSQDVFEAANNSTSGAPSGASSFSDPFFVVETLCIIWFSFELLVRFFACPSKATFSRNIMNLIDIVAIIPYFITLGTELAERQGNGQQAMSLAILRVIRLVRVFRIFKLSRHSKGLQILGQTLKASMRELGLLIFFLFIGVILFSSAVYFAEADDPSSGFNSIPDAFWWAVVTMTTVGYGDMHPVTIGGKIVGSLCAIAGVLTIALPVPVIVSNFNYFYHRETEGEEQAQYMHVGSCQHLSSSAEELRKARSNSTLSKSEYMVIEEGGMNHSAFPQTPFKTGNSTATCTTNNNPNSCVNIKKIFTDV

With `COC(=O)C1=CNC=C(C(=O)OC)C1c1ccc(F)c(C(F)(F)F)c1` [Compound 103, Dimethyl 4-(4-fluoro-3-(trifluoromethyl)phenyl)-1,4-dihydropyridine-3,5-dicarboxylate], the IC50 against KV1.2, against KV1.5, against KV1.1, against KV1.4, at KV1.7 and at KV11.1 (hERG) was more than 10 µM each time. Also, the IC50 against KCa3.1 channel (KCa3.1, Table 5) was 6.1 ± 0.9 nM; at KCa3.1 channel (KCa3.1 IC50 (nM), Table 3) it was 6.1 nM; against KCa2.2, more than 10 µM; against KV1.3, more than 10 µM; against KCa1.1, more than 10 µM. For the same compound, the selectivity ratio in data set [1] worked out at 2210. Further, the “CYP IC50/KCa3.1 IC50” value was found to be 3279 on CYP-IA2; 3279 at CYP-2D6; 836 on CYP-2C9; 3279 on CYP-3A4; 3279 at CYP-2C19. The same compound showed a half-life at 1 μM in the data set “in vitro” of 16 min. For the same compound, in data set [2], the “Microsomal Stability (human) % remaining @ 30 mins” value amounted to 25%. Further, in data set [2], the “drug/control (% remaining @ 30 mins)” value is on record as 3.7.
With `COC(=O)C1=C(C)NC(C)=C(C(=O)OC)C1c1ccc(F)c(C(F)(F)F)c1` [Compound 101], the IC50 at KV1.2 is more than 10 µM; against KV1.5 it was more than 10 µM; on KV1.1 it was more than 10 µM; at CYP-IA2 (microsomes), 9.1 µM; against KV1.4 it was more than 10 µM; at CYP-2D6 (microsomes), more than 20 µM. Also, the IC50 was 2.6 µM against CYP-2C9 (microsomes); more than 10 µM on KV1.7; more than 10 µM against KV11.1 (hERG); 16 ± 0.2 nM against KCa3.1 channel (IC50 (nM), block of KCa3.1, patch clamp (Table 2)); 16.2 ± 0.2 nM against KCa3.1 channel (KCa3.1, Table 5); more than 10 µM at KCa2.2. In addition, the IC50 was 1.3 µM against CYP-3A4 (microsomes), more than 10 µM against KV1.3, more than 20 µM against CYP-2C19 (microsomes) and more than 10 µM on KCa1.1. For the same compound, in data set [1], the selectivity ratio was determined as 200. Further, the “CYP IC50/KCa3.1 IC50” value amounted to 558 at CYP-IA2; 1226 on CYP-2D6; 162.5 on CYP-2C9; 79.75 on CYP-3A4; 1226 on CYP-2C19. In the data set “in vitro”, this compound showed a half-life at 1 μM of 22 min. Further, the “Microsomal Stability (human) % remaining @ 30 mins” value in [2] came out at 53%. Moreover, the “drug/control (% remaining @ 30 mins)” value in data set [2] came out at 1.6.
